According to patent US12458578B2, “Composition for inhibiting plaque formation” (SUNSTAR SUISSE SA, priority 2020, dated 2025):

Tested on: Fusobacterium (Fusobacterium nucleatum subsp. nucleatum ATCC23726 and ATCC25586)
Assay: Study of sterilization effect of quaternary ammonium salt sterilizer liquids (in water) on Fusobacterium, viable count after 30 seconds
Type: cell-based
Details: for sterilization effect on Fusobacterium (number of viable bacteria): component used singly as sterilizer liquid in water, 0.01-0.10%, 30 seconds contact
Experimental: The alkylpyridinium chlorides and benzyl alkyl dimethyl ammonium chlorides shown below were dissolved in water such that each component had each concentration (0.01%, 0.02%, 0.03%, 0.04%, 0.05%, 0.07%, or 0.10%), and the resulting products were used as sterilizer liquids. In the sterilizer liquids, the components were used singly or in combination. The concentration (%) of an alkylpyridinium chloride in the sterilizer liquids is expressed as w/v %; however, since the solvent is water, and the concentrations are relatively low, the value is almost the same as the value expressed as mass % (w/w %) and can be approximated. • Octylpyridinium chloride (OPC): R=(CH2)7CH3 in the following formula • Dodecylpyridnium chloride (DPC): R=(CH2)11CH3 in the following formula • Cetylpyridinium chloride (CPC): R=(CH2)15CH3 in the following formula
For test bacteria, the following two subspecies of Fusobacterium were used. • Bacteria 1: Fusobacterium nucleatum subsp. nucleatum ATCC23726 • Bacteria 2: Fusobacterium nucleatum subsp. nucleatum ATCC25586
The test bacteria were individually inoculated into 10 ml of GAM bouillon medium (Nissui Pharmaceutical Co., Ltd.) and incubated anaerobically at 37° C. for 2 days. The resulting culture media were used as test bacteria liquids.
The sterilizer liquids (200 μl) at different concentrations were each mixed with the test bacteria liquids (200 μl). Thirty seconds after the mixing, 100 μl of the mixture was collected, and 900 μl of drug inactivation PBS in which soy lecithin and Tween 80 were added to a final concentration of 0.07% and 0.5%, respectively, to phosphate-buffered saline (PBS) was added (the mixture was diluted 10-fold) to inactivate the sterilization properties of the sterilizers. Each mixture was serially diluted 10^1- to 10^7-fold with the drug inactivation PBS (serially diluted mixers).
100 μl each of the prepared serially diluted mixers was smeared on sheep blood agar media for CDC anaerobes (Becton, Dickinson and Company), cultured anaerobically at 37° C. for 3 days, and the number of viable bacteria was counted.
FIGS. 1, 2, and 3 show the results. In the graphs of these figures, the vertical axis represents log (the number of viable bacteria) CFU/ml, with the detection limit of this value being 2.
The concentrations of CPC, DPC, OPC, BKC12, BKC14, and BKC16 in these figures and the following figures represent the concentrations of these components prepared as sterilizer liquids.

Structure (SMILES) | sterilization effect on Fusobacterium (number of viable bacteria) | other results
CCCCCCCCCCCC[N+](C)(C)Cc1ccccc1.[Cl-] [BKC12, Benzyl dodecyl dimethyl ammonium chloride] | showed a sterilization effect on Fusobacterium even at a relatively low concentration | 
CCCCCCCCCCCCCC[N+](C)(C)Cc1ccccc1.[Cl-] [BKC14, Benzyl tetradecyl dimethyl ammonium chloride] | showed a sterilization effect on Fusobacterium even at a relatively low concentration | 
CCCCCCCCCCCCCCCC[N+](C)(C)Cc1ccccc1.[Cl-] [BKC16, Benzyl hexadecyl dimethyl ammonium chloride] | did not show a sterilization effect on Fusobacterium | 
CCCCCCCCCCCCCCCC[n+]1ccccc1.[Cl-] [CPC, Cetylpyridinium chloride] | did not show a sterilization effect on Fusobacterium | enhancement of the sterilization effect of BKC12 on Fusobacterium (CPC combined with BKC12 in the sterilizer liquid): enhanced the sterilization effect of BKC14 or BKC12 on Fusobacterium; enhancement of the sterilization effect of BKC14 on Fusobacterium (CPC combined with BKC14 in the sterilizer liquid): enhanced the sterilization effect of BKC14 or BKC12 on Fusobacterium; enhancement of the sterilization effect of DPC on Fusobacterium (CPC combined with DPC in the sterilizer liquid): enhanced the sterilization effect of DPC on Fusobacterium; enhancement of the sterilization effect of a quaternary ammonium salt having a C10 to C14 alkyl group on Fusobacterium (cetylpyridinium chloride combined with the quaternary ammonium salt): exhibits an effect of enhancing the sterilization effect of a quaternary ammonium salt having a C10 to C14 alkyl group on Fusobacterium; sterilization effect on Fusobacterium (number of viable bacteria) (listed as Cetylpyridinium chloride): an efficient sterilization effect on Fusobacterium was not observed; sterilization effect on Fusobacterium (number of viable bacteria) (listed as cetylpyridinium chloride): does not produce an efficient sterilization effect on Fusobacterium
CCCCCCCCCCCC[n+]1ccccc1.[Cl-] [DPC, Dodecylpyridnium chloride] | showed a sterilization effect on Fusobacterium even at a relatively low concentration | 
CCCCCCCC[n+]1ccccc1.[Cl-] [OPC, Octylpyridinium chloride] | did not show a sterilization effect on Fusobacterium | 
